Experimental data from ChEMBL document CHEMBL1154382, “Preliminary SAR analysis of novel antiproliferative N(6),5'-bis-ureidoadenosine derivatives” (2009).

What was measured:
Format in all cases: functional
Details in all cases: values are per cent of control
[1] = system: CCRF-CEM; test: Antiproliferative activity against human CCRF-CEM cells at 10 uM assessed as cell growth inhibition relative to control
[2] = system: HL-60(TB); test: Antiproliferative activity against human HL-60(TB) cells at 10 uM assessed as cell growth inhibition relative to control
[3] = system: K562; test: Antiproliferative activity against human K562 cells at 10 uM assessed as cell growth inhibition relative to control
[4] = system: MOLT-4; test: Antiproliferative activity against human MOLT4 cells at 10 uM assessed as cell growth inhibition relative to control
[5] = Antiproliferative activity against human […] cells at 10 uM assessed as cell growth inhibition relative to control
[6] = system: A549; test: Antiproliferative activity against human A549 cells at 10 uM assessed as cell growth inhibition relative to control
[7] = system: EKVX; test: Antiproliferative activity against human EKVX cells at 10 uM assessed as cell growth inhibition relative to control
[8] = system: PC-3; test: Antiproliferative activity against human PC3 cells at 10 uM assessed as cell growth inhibition relative to control
[9] = system: HOP-62; test: Antiproliferative activity against human HOP62 cells at 10 uM assessed as cell growth inhibition relative to control
[10] = system: HOP-92; test: Antiproliferative activity against human HOP92 cells at 10 uM assessed as cell growth inhibition relative to control
[11] = system: NCI-H226; test: Antiproliferative activity against human NCI-H226 cells at 10 uM assessed as cell growth inhibition relative to control
[12] = system: NCI-H23; test: Antiproliferative activity against human NCI-H23 cells at 10 uM assessed as cell growth inhibition relative to control
[13] = system: NCI-H322M; test: Antiproliferative activity against human NCI-H322M cells at 10 uM assessed as cell growth inhibition relative to control
[14] = system: NCI-H460; test: Antiproliferative activity against human NCI-H460 cells at 10 uM assessed as cell growth inhibition relative to control
[15] = system: NCI-H522; test: Antiproliferative activity against human NCI-H522 cells at 10 uM assessed as cell growth inhibition relative to control
[16] = system: COLO 205; test: Antiproliferative activity against human COLO205 cells at 10 uM assessed as cell growth inhibition relative to control
[17] = system: HCC 2998; test: Antiproliferative activity against human HCC2998 cells at 10 uM assessed as cell growth inhibition relative to control
[18] = system: HCT-116; test: Antiproliferative activity against human HCT116 cells at 10 uM assessed as cell growth inhibition relative to control
[19] = system: HCT-15; test: Antiproliferative activity against human HCT15 cells at 10 uM assessed as cell growth inhibition relative to control
[20] = system: HT-29; test: Antiproliferative activity against human HT-29 cells at 10 uM assessed as cell growth inhibition relative to control
[21] = system: KM12; test: Antiproliferative activity against human KM12 cells at 10 uM assessed as cell growth inhibition relative to control
[22] = system: SW-620; test: Antiproliferative activity against human SW620 cells at 10 uM assessed as cell growth inhibition relative to control
[23] = system: LOX IMVI; test: Antiproliferative activity against human LOXIMVI cells at 10 uM assessed as cell growth inhibition relative to control
[24] = system: Malme-3M; test: Antiproliferative activity against human MALME-3M cells at 10 uM assessed as cell growth inhibition relative to control
[25] = system: M14; test: Antiproliferative activity against human M14 cells at 10 uM assessed as cell growth inhibition relative to control
[26] = system: SK-MEL-2; test: Antiproliferative activity against human SK-MEL-2 cells at 10 uM assessed as cell growth inhibition relative to control
[27] = system: SK-MEL-28; test: Antiproliferative activity against human SK-MEL-28 cells at 10 uM assessed as cell growth inhibition relative to control
[28] = system: SK-MEL-5; test: Antiproliferative activity against human SK-MEL-5 cells at 10 uM assessed as cell growth inhibition relative to control
[29] = system: UACC-257; test: Antiproliferative activity against human UACC257 cells at 10 uM assessed as cell growth inhibition relative to control
[30] = system: UACC-62; test: Antiproliferative activity against human UACC62 cells at 10 uM assessed as cell growth inhibition relative to control
[31] = system: SF-268; test: Antiproliferative activity against human SF268 cells at 10 uM assessed as cell growth inhibition relative to control
[32] = system: SF-295; test: Antiproliferative activity against human SF295 cells at 10 uM assessed as cell growth inhibition relative to control
[33] = system: SF-539; test: Antiproliferative activity against human SF539 cells at 10 uM assessed as cell growth inhibition relative to control
[34] = system: SNB-19; test: Antiproliferative activity against human SNB19 cells at 10 uM assessed as cell growth inhibition relative to control
[35] = system: SNB-75; test: Antiproliferative activity against human SNB75 cells at 10 uM assessed as cell growth inhibition relative to control
[36] = system: U-251; test: Antiproliferative activity against human U251 cells at 10 uM assessed as cell growth inhibition relative to control
[37] = system: IGROV-1; test: Antiproliferative activity against human IGROV1 cells at 10 uM assessed as cell growth inhibition relative to control
[38] = system: OVCAR-3; test: Antiproliferative activity against human OVCAR-3 cells at 10 uM assessed as cell growth inhibition relative to control
[39] = system: OVCAR-4; test: Antiproliferative activity against human OVCAR4 cells at 10 uM assessed as cell growth inhibition relative to control
[40] = system: OVCAR-5; test: Antiproliferative activity against human OVCAR5 cells at 10 uM assessed as cell growth inhibition relative to control
[41] = system: OVCAR-8; test: Antiproliferative activity against human OVCAR8 cells at 10 uM assessed as cell growth inhibition relative to control
[42] = system: SK-OV-3; test: Antiproliferative activity against human SKOV3 cells at 10 uM assessed as cell growth inhibition relative to control
[43] = system: 786-0; test: Antiproliferative activity against human 786-0 cells at 10 uM assessed as cell growth inhibition relative to control
[44] = system: ACHN; test: Antiproliferative activity against human ACHN cells at 10 uM assessed as cell growth inhibition relative to control
[45] = system: CAKI-1; test: Antiproliferative activity against human Caki1 cells at 10 uM assessed as cell growth inhibition relative to control
[46] = system: RXF 393; test: Antiproliferative activity against human RXF393 cells at 10 uM assessed as cell growth inhibition relative to control
[47] = system: SN12C; test: Antiproliferative activity against human SN12C cells at 10 uM assessed as cell growth inhibition relative to control
[48] = system: TK-10; test: Antiproliferative activity against human TK10 cells at 10 uM assessed as cell growth inhibition relative to control
[49] = system: UO-31; test: Antiproliferative activity against human UO31 cells at 10 uM assessed as cell growth inhibition relative to control
[50] = system: BT-549; test: Antiproliferative activity against human BT549 cells at 10 uM assessed as cell growth inhibition relative to control
[51] = Antiproliferative activity against human Hs 578T cells at 10 uM assessed as cell growth inhibition relative to control
[52] = system: MCF7; test: Antiproliferative activity against human MCF7 cells at 10 uM assessed as cell growth inhibition relative to control
[53] = system: MDA-MB-231; test: Antiproliferative activity against human MDA-MB-231 cells at 10 uM assessed as cell growth inhibition relative to control
[54] = system: MDA-MB-468; test: Antiproliferative activity against human MDA-MB-468 cells at 10 uM assessed as cell growth inhibition relative to control
[55] = system: T47D; test: Antiproliferative activity against human T47D cells at 10 uM assessed as cell growth inhibition relative to control
[56] = system: DU-145; test: Antiproliferative activity against human DU145 cells at 10 uM assessed as cell growth inhibition relative to control

## CNC(=O)NC[C@H]1O[C@@H](n2cnc3c(NC(=O)Nc4ccccc4)ncnc32)[C@H](O[Si](C)(C)C(C)(C)C)[C@@H]1O[Si](C)(C)C(C)(C)C
[1]
  growth, % of control at 10 µM: 43%
[2]
  growth, % of control at 10 µM: 24%
[3]
  growth, % of control at 10 µM: 34%
[4]
  growth, % of control at 10 µM: 24%
[5]
  growth, % of control at 10 µM: 20%
[6]
  growth, % of control at 10 µM: 23%
[7]
  growth, % of control at 10 µM: 23%
[8]
  growth, % of control at 10 µM: 8%
[9]
  growth, % of control at 10 µM: 62%
[10]
  growth, % of control at 10 µM: -3%
[11]
  growth, % of control at 10 µM: 49%
[12]
  growth, % of control at 10 µM: 36%
[13]
  growth, % of control at 10 µM: 87%
[14]
  growth, % of control at 10 µM: -7%
[15]
  growth, % of control at 10 µM: 46%
[16]
  growth, % of control at 10 µM: -100%
[17]
  growth, % of control at 10 µM: -1%
[18]
  growth, % of control at 10 µM: 0%
[19]
  growth, % of control at 10 µM: 21%
[20]
  growth, % of control at 10 µM: -68%
[21]
  growth, % of control at 10 µM: -4%
[22]
  growth, % of control at 10 µM: 36%
[23]
  growth, % of control at 10 µM: 13%
[24]
  growth, % of control at 10 µM: 49%
[25]
  growth, % of control at 10 µM: 33%
[26]
  growth, % of control at 10 µM: 57%
[27]
  growth, % of control at 10 µM: 60%
[28]
  growth, % of control at 10 µM: 48%
[29]
  growth, % of control at 10 µM: 43%
[30]
  growth, % of control at 10 µM: 42%
[31]
  growth, % of control at 10 µM: 36%
[32]
  growth, % of control at 10 µM: 45%
[33]
  growth, % of control at 10 µM: 33%
[34]
  growth, % of control at 10 µM: 76%
[35]
  growth, % of control at 10 µM: 46%
[36]
  growth, % of control at 10 µM: 17%
[37]
  growth, % of control at 10 µM: 53%
[38]
  growth, % of control at 10 µM: -29%
[39]
  growth, % of control at 10 µM: 30%
[40]
  growth, % of control at 10 µM: 69%
[41]
  growth, % of control at 10 µM: 33%
[42]
  growth, % of control at 10 µM: 78%
[43]
  growth, % of control at 10 µM: 17%
[44]
  growth, % of control at 10 µM: 21%
[45]
  growth, % of control at 10 µM: 60%
[46]
  growth, % of control at 10 µM: -37%
[47]
  growth, % of control at 10 µM: -79%
[48]
  growth, % of control at 10 µM: 34%
[49]
  growth, % of control at 10 µM: 48%
[50]
  growth, % of control at 10 µM: 40%
[51]
  growth, % of control at 10 µM: 61%
[52]
  growth, % of control at 10 µM: 0%
[53]
  growth, % of control at 10 µM: 38%
[54]
  growth, % of control at 10 µM: 36%
[55]
  growth, % of control at 10 µM: 14%
[56]
  growth, % of control at 10 µM: 52%
